Paper PMC10997755, “Discovery of a small-molecule inhibitor that traps Polθ on DNA and synergizes with PARP inhibitors” (Nature Communications, 2024)
pIC50: −log10 of the molar value. Read-outs that look alike come from different tables or passages of the source.

Experiments:
Polθ-pol = molecular target: T1, Polθ-pol (Homo sapiens, UniProt O75417); assay: Cy5 fluorescence Polθ-pol DNA synthesis (strand displacement) IC50 assay; type: biochemical; conditions: Polθ-pol DNA synthesis, Cy5 fluorescence
T1 construct: purified recombinant human Polθ-pol (comprising amino acid residues 1792–2590); made in house
T1 sequence (O75417 1792-2590): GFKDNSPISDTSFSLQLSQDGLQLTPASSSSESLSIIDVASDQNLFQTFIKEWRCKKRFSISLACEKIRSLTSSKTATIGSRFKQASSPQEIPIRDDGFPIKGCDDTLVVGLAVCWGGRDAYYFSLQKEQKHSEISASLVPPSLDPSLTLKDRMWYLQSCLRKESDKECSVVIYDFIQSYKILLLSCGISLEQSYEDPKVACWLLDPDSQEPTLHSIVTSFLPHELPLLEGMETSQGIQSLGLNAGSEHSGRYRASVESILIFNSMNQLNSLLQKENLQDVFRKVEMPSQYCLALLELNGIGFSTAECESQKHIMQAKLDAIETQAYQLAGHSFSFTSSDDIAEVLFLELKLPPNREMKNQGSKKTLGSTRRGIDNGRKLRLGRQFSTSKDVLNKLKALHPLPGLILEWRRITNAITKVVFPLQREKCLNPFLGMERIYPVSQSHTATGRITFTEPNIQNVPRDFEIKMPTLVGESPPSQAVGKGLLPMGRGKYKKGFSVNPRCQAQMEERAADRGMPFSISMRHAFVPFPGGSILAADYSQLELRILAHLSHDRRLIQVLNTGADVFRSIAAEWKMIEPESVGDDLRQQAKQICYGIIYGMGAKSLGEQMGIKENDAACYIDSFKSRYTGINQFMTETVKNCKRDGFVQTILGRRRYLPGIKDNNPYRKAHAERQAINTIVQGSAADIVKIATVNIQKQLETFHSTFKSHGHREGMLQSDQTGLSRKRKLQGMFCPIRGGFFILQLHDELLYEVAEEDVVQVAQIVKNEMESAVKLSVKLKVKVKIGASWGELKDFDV
Procedure: The following Cy5 fluorescence assay was used to measure the ability of compounds to inhibit Polθ-pol in vitro. The fluorescent based assay was performed as follows: 60 nM of the pre-annealed primer-template containing a 5’ Cy5 fluorophore conjugated template strand (RP486-Cy5), a downstream complementary oligo conjugated with a 3’ Iowa BlackReg Dark quencher (RP343BHQRQ) and a primer strand (RP469D) was mixed with 50 uM 2'-deoxyribonucleoside triphosphates (dNTPs), 0.1 mg/mL Bovine serum albumin (BSA), 0.01% NP-40, 10% glycerol, 1 mM dithiothreitol (DTT), 10 mM MgCl2, 25 mM TrisHCl pH 7.8 in the presence of 2.5% DMSO with or without various concentrations (7-point dilution series) of Polθ-pol small-molecule inhibitors at 37 °C in a volume of 40 μL. The reactions were initiated by the addition of 5 nM of purified recombinant human Polθ-pol (comprising amino acid residues 1792–2590). The reactions were terminated by the addition of 20 mM EDTA after 18 min, and the Cy5 fluorescence intensity was measured using a CLARIOstar (BMG Labtech) plate reader. Reactions were performed in triplicate and the % inhibition at each concentration of the respective compound of Formula I was based on the mean.

DLD1 Parental cells = assay: Clonogenic assay; type: cell-based; conditions: DLD1 Parental
Procedure: (§1) Cells were plated on six or twelve or twenty-four well plates. In six well plate, 1000 cells/ well of BRCA2 -/-, BRCA1 -/-, PALB2 mut and 500 cells/ well of wildtype pair was plated; In twelve well plate, 600 cells/ well of BRCA2 -/-, BRCA1 -/-, PALB2 mut and 400 cells/ well of wildtype pair was plated; In twenty-four well plate, 500 cells/ well of BRCA2 -/-, BRCA1 -/-, PALB2 mut and 300 cells/ well of wildtype pair was plated. For MEFs, 300 cells per well in six-well plate were seeded. The medium was replaced every 2 days until the colonies were ready for staining in 10–12 days. For staining: Medium was removed from plates, and cells were rinsed with PBS. Fixation was carried out with—Water: Ethanol: Acetic acid (5:4:1) for 30 min followed by staining of colonies with 0.5% crystal violet in Water: Ethanol (3:2) for 2 h at room temperature. The plates were rinsed with water and left for drying overnight at room temperature. Colonies were then counted and IC50 was calculated using results from 3 or more independent experiments. Response curves are shown as mean colony formation +/- S.E.M.

DLD1 BRCA2 -/- cells = assay: Clonogenic assay; type: cell-based; conditions: for Average (colonies): DLD1 BRCA2 -/-; for pIC50: DLD1 cells, label beside BRCA2-null curve, read-out: IC50 clonogenic survival; for potency in BRCA2-null cells compared with RTx-161: clonogenic survival
Procedure: as §1
Data are expressed as mean ± SEM from at least 3 independent experiments with triplicates for each condition unless stated otherwise. When conducting comparison between two groups, two-tailed unpaired t-test was used. Significance was assumed at p < 0.05. Asterisks in the figures indicate significance, ^∗p < 0.05, ^∗∗p < 0.01, ^∗∗∗p < 0.001. Combenefit® software version 2.021 was used to perform synergy analyses for drug combinations between RTx-161 and PARPi. GraphPad Prism 9 software was used to calculate IC50.

## Cc1cccc(N(C)C(=O)[C@@H]2[C@H](O)CCN2c2nc(C)cc(C(F)(F)F)c2C#N)c1 [ART558, reference compound]
Polθ-pol
  pIC50: 7.94
DLD1 Parental cells; 0.1875 uM, block 1 of sheet
  Average (colonies): 47.5
DLD1 Parental cells; 0.1875 uM, block 2 of sheet
  Average (colonies): 42
DLD1 Parental cells; 0.1875 uM, block 3 of sheet
  Average (colonies): 77
DLD1 Parental cells; 0.375 uM, block 1 of sheet
  Average (colonies): 51
DLD1 Parental cells; 0.375 uM, block 2 of sheet
  Average (colonies): 61
DLD1 Parental cells; 0.375 uM, block 3 of sheet
  Average (colonies): 80
DLD1 Parental cells; 0.75 uM, block 1 of sheet
  Average (colonies): 39.5
DLD1 Parental cells; 0.75 uM, block 2 of sheet
  Average (colonies): 41.5
DLD1 Parental cells; 0.75 uM, block 3 of sheet
  Average (colonies): 76.5
DLD1 Parental cells; 1.5 uM, block 1 of sheet
  Average (colonies): 42.5
DLD1 Parental cells; 1.5 uM, block 2 of sheet
  Average (colonies): 44.5
DLD1 Parental cells; 1.5 uM, block 3 of sheet
  Average (colonies): 77.5
DLD1 Parental cells; 3 uM, block 1 of sheet
  Average (colonies): 58.5
DLD1 Parental cells; 3 uM, block 2 of sheet
  Average (colonies): 36.5
DLD1 Parental cells; 3 uM, block 3 of sheet
  Average (colonies): 78.5
DLD1 Parental cells; 6 uM, block 1 of sheet
  Average (colonies): 42.5
DLD1 Parental cells; 6 uM, block 2 of sheet
  Average (colonies): 59
DLD1 Parental cells; 6 uM, block 3 of sheet
  Average (colonies): 76.5
DLD1 Parental cells; 12 uM, block 2 of sheet
  Average (colonies): 57.5
DLD1 Parental cells; 12 uM, block 3 of sheet
  Average (colonies): 79
DLD1 BRCA2 -/- cells; 0.1875 uM, block 1 of sheet
  Average (colonies): 21.5
DLD1 BRCA2 -/- cells; 0.1875 uM, block 2 of sheet
  Average (colonies): 41.5
DLD1 BRCA2 -/- cells; 0.1875 uM, block 3 of sheet
  Average (colonies): 18
DLD1 BRCA2 -/- cells; 0.375 uM, block 1 of sheet
  Average (colonies): 24.5
DLD1 BRCA2 -/- cells; 0.375 uM, block 2 of sheet
  Average (colonies): 37.5
DLD1 BRCA2 -/- cells; 0.375 uM, block 3 of sheet
  Average (colonies): 18.5
DLD1 BRCA2 -/- cells; 0.75 uM, block 1 of sheet
  Average (colonies): 10.5
DLD1 BRCA2 -/- cells; 0.75 uM, block 2 of sheet
  Average (colonies): 31
DLD1 BRCA2 -/- cells; 0.75 uM, block 3 of sheet
  Average (colonies): 18.5
DLD1 BRCA2 -/- cells; 1.5 uM, block 1 of sheet
  Average (colonies): 15.5
DLD1 BRCA2 -/- cells; 1.5 uM, block 2 of sheet
  Average (colonies): 30.5
DLD1 BRCA2 -/- cells; 1.5 uM, block 3 of sheet
  Average (colonies): 20.5
DLD1 BRCA2 -/- cells; 3 uM, block 1 of sheet
  Average (colonies): 14
DLD1 BRCA2 -/- cells; 3 uM, block 2 of sheet
  Average (colonies): 22.5
DLD1 BRCA2 -/- cells; 3 uM, block 3 of sheet
  Average (colonies): 15
DLD1 BRCA2 -/- cells; 6 uM, block 1 of sheet
  Average (colonies): 6.5
DLD1 BRCA2 -/- cells; 6 uM, block 2 of sheet
  Average (colonies): 28.5
DLD1 BRCA2 -/- cells; 6 uM, block 3 of sheet
  Average (colonies): 8
DLD1 BRCA2 -/- cells; 12 uM, block 2 of sheet
  Average (colonies): 11.5
DLD1 BRCA2 -/- cells; 12 uM, block 3 of sheet
  Average (colonies): 6
DLD1 BRCA2 -/- cells; Homo sapiens, DLD-1
  pIC50: ~5.60
DLD1 BRCA2 -/- cells
  potency in BRCA2-null cells compared with RTx-161: slightly reduced potency

## Nc1ccc(C#CCN(C(=O)Cc2ncc(C(F)(F)F)cc2C(F)(F)F)c2ccc(F)cc2)nn1 [RP6685, reference compound]
Polθ-pol
  pIC50: 8.16
DLD1 Parental cells; 0.375 uM, block 1 of sheet
  Average (colonies): 72.6667
DLD1 Parental cells; 0.375 uM, block 2 of sheet
  Average (colonies): 75
DLD1 Parental cells; 0.375 uM, block 3 of sheet
  Average (colonies): 87
DLD1 Parental cells; 0.375 uM, block 4 of sheet
  Average (colonies): 63.6667
DLD1 Parental cells; 0.75 uM, block 1 of sheet
  Average (colonies): 55.3333
DLD1 Parental cells; 0.75 uM, block 2 of sheet
  Average (colonies): 76
DLD1 Parental cells; 0.75 uM, block 3 of sheet
  Average (colonies): 85.6667
DLD1 Parental cells; 0.75 uM, block 4 of sheet
  Average (colonies): 65.6667
DLD1 Parental cells; 1.5 uM, block 1 of sheet
  Average (colonies): 59.3333
DLD1 Parental cells; 1.5 uM, block 2 of sheet
  Average (colonies): 75
DLD1 Parental cells; 1.5 uM, block 3 of sheet
  Average (colonies): 80
DLD1 Parental cells; 1.5 uM, block 4 of sheet
  Average (colonies): 63.3333
DLD1 Parental cells; 3 uM, block 1 of sheet
  Average (colonies): 73
DLD1 Parental cells; 3 uM, block 2 of sheet
  Average (colonies): 75.6667
DLD1 Parental cells; 3 uM, block 3 of sheet
  Average (colonies): 85.6667
DLD1 Parental cells; 3 uM, block 4 of sheet
  Average (colonies): 65.6667
DLD1 Parental cells; 6 uM, block 1 of sheet
  Average (colonies): 74
DLD1 Parental cells; 6 uM, block 2 of sheet
  Average (colonies): 74.3333
DLD1 Parental cells; 6 uM, block 3 of sheet
  Average (colonies): 84
DLD1 Parental cells; 6 uM, block 4 of sheet
  Average (colonies): 64
DLD1 Parental cells; 12 uM, block 1 of sheet
  Average (colonies): 60.6667
DLD1 Parental cells; 12 uM, block 2 of sheet
  Average (colonies): 75
DLD1 Parental cells; 12 uM, block 3 of sheet
  Average (colonies): 81
DLD1 Parental cells; 12 uM, block 4 of sheet
  Average (colonies): 64.3333
DLD1 BRCA2 -/- cells; 0.375 uM, block 1 of sheet
  Average (colonies): 44.6667
DLD1 BRCA2 -/- cells; 0.375 uM, block 2 of sheet
  Average (colonies): 14.6667
DLD1 BRCA2 -/- cells; 0.375 uM, block 3 of sheet
  Average (colonies): 52
DLD1 BRCA2 -/- cells; 0.375 uM, block 4 of sheet
  Average (colonies): 52
DLD1 BRCA2 -/- cells; 0.75 uM, block 1 of sheet
  Average (colonies): 42.3333
DLD1 BRCA2 -/- cells; 0.75 uM, block 2 of sheet
  Average (colonies): 10.3333
DLD1 BRCA2 -/- cells; 0.75 uM, block 3 of sheet
  Average (colonies): 48.3333
DLD1 BRCA2 -/- cells; 0.75 uM, block 4 of sheet
  Average (colonies): 49.6667
DLD1 BRCA2 -/- cells; 1.5 uM, block 1 of sheet
  Average (colonies): 34
DLD1 BRCA2 -/- cells; 1.5 uM, block 2 of sheet
  Average (colonies): 7.333
DLD1 BRCA2 -/- cells; 1.5 uM, block 3 of sheet
  Average (colonies): 43.6667
DLD1 BRCA2 -/- cells; 1.5 uM, block 4 of sheet
  Average (colonies): 41.6667
DLD1 BRCA2 -/- cells; 3 uM, block 1 of sheet
  Average (colonies): 34.3333
DLD1 BRCA2 -/- cells; 3 uM, block 2 of sheet
  Average (colonies): 4
DLD1 BRCA2 -/- cells; 3 uM, block 3 of sheet
  Average (colonies): 33.6667
DLD1 BRCA2 -/- cells; 3 uM, block 4 of sheet
  Average (colonies): 36.3333
DLD1 BRCA2 -/- cells; 6 uM, block 1 of sheet
  Average (colonies): 30
DLD1 BRCA2 -/- cells; 6 uM, block 2 of sheet
  Average (colonies): 4
DLD1 BRCA2 -/- cells; 6 uM, block 3 of sheet
  Average (colonies): 31
DLD1 BRCA2 -/- cells; 6 uM, block 4 of sheet
  Average (colonies): 28
DLD1 BRCA2 -/- cells; 12 uM, block 1 of sheet
  Average (colonies): 25
DLD1 BRCA2 -/- cells; 12 uM, block 2 of sheet
  Average (colonies): 2
DLD1 BRCA2 -/- cells; 12 uM, block 3 of sheet
  Average (colonies): 21.3333
DLD1 BRCA2 -/- cells; 12 uM, block 4 of sheet
  Average (colonies): 9.333
DLD1 BRCA2 -/- cells
  pIC50: ~5.35
  potency in BRCA2-null cells compared with RTx-161: slightly reduced potency
